What follows are compounds tested against T1, α-7 nicotinic acetylcholine receptor channel expressed in HEK 293 cells (Rattus norvegicus, UniProt Q05941) (assay: Ca2+-sensitive fluorescence-based FLIPR assay, α7 nicotinic ACh receptor channel function (agonist)). Conditions: not given.
T1 construct: expressed in transfected cells
Assay type: cell-based
Description: I) α7 Nicotinic Acetycholine Receptor Binding. Membranes were prepared for binding using HEK293 cells stably expressing the rat α7 nicotinic acetycholine receptor (rat α7 nAChR). Cells were homogenized at 4° C. in hypotonic lysis buffer consisting of 10 mM Tris (pH 7.4), 5 mM EDTA and protease inhibitors and centrifuged at 32000×g for 20 minutes. The pellet was washed once in membrane wash buffer consisting of 50 mM Tris (pH 7.4), 1 mM EDTA and protease inhibitors and centrifuged at 32000×g for 20 minutes. This pellet was then resuspended in assay buffer consisting 50 mM KH2PO4 (pH 7.4 at 25° C.), 1 mM EDTA, 0.005% Triton-X 100 and 0.1% (v/v) Sigma Protease Inhibitor Cocktail. Aliquots were then frozen in dry ice/ethanol and kept at −80° C. until the day of the assay. II) A Ca^2+-Sensitive, Fluorescence-Based Assay α-7 for Nicotinic Acetylcholine Receptor Channel Function In Mammalian Cells (“FLIPR”). Summary: Lead compounds are evaluated for agonist activity at […], α3β4, […], and α1β1δ1ε sub-types of nicotinic ACh receptor ion channels expressed in mammalian HEK 293 cells. Agonist potency and efficacy values are determined from kinetic fluorescence Ca^2+ influx measurements made using a 384 well FLIPR (Fluorescence Image Plate Reader). […] In this assay, channel expressing HEK cell lines seeded in 384 well assay plates are loaded with a membrane permeant fluorescent Ca^2+ indicator dye, whose 510 nm green emission signal increases in response to elevation of intracellular Ca^2+ concentration. The basal fluorescence from the cells is monitored in real time, followed by the acute addition of test compounds.
Materials and Methods: Reagents: The acetomethoxy (AM) ester of the Ca^2+ indicator dye Fluo-4 was obtained from InVitrogen, (Carlsbad, Calif.). Acetylcholine and all buffer constituents were purchased from Sigma Chemical Company, St. Louis, Mo. G418 and Minimal Essential Medium were purchased from InVitrogen Life Technologies, Carlsbad, Calif. Fetal bovine serum was purchased from (InVitrogen, Carlsbad, Calif.).
Cell Culture: HEK-293 cells were grown in Minimal Essential Medium containing 10% (v/v) fetal bovine serum at 37° C. in a 5% CO2 incubator. HEK-293 cells stably expressing the ion channels were grown in the same medium with the addition of 500 μg/ml G418.
Ca^2+ flux assays of Ca^2+ channels expressed in HEK-293 cells: HEK-293 cells expressing the ion channels of interest were plated in 384 well, black-walled, clear-bottomed, poly-D-lysine coated plates at a density of ˜20,000 cells/well in 20 μl of Minimal Essential Medium containing 10% (v/v) fetal bovine serum and incubated for 2 days at 29° C. in a 5% CO2 incubator. Prior to assay, cells were loaded with the Fluo-4 AM ester. […] Dye loading was allowed to proceed for 90 minutes at room temperature at which time the dye loading solution was removed and replaced with 40 μl/well of Hanks buffer. Cells loaded with dye were loaded onto a FLIPR384 (Molecular Devices, Sunnyvale, Calif.). Fluo-4 dye was excited using the 488 nm line of an argon laser. Emission was filtered using a 540+/−30 nm bandpass filter. For evaluation of the effects of test compounds using the Ca^2+ flux assay, compounds to be tested were provided in assay ready plates. For nicotinic receptor ion channel expressing cells, the assay was initiated by the addition of 20 μl/well of Hanks buffer containing test compounds. For all assays, data were collected at 1 Hz for 10 seconds (baseline), at which time the compound containing stimulus buffers are added, and further measurements collected at 0.33 Hz for 3 min.
Data Analysis: The statistical robustness of the nicotinic receptor Ca^2+ flux assays is determined from blanks and totals wells. […] The raw fluorescence units data files generated on the FLIPR plate reader are automatically exported and processed by in-house data analysis tools.

T1 sequence (Q05941 23-502): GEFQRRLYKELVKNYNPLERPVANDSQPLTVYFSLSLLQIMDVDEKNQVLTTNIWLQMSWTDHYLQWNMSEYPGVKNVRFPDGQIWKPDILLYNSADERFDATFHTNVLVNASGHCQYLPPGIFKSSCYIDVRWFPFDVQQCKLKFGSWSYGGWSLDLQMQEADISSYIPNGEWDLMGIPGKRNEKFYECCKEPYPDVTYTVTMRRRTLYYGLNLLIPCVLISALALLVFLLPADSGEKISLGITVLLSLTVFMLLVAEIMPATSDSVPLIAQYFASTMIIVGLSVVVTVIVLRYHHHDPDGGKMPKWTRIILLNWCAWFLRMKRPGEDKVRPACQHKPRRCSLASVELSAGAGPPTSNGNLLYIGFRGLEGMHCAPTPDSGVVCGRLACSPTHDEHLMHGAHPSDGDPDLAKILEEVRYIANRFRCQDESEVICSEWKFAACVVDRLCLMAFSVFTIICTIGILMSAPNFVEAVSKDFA

SMILES	EC50 [nM]
COc1cc2cnc(NC3=NC[C@@]4(CN5CCC4CC5)O3)cc2cc1OC [Example 342, (R)—N-(6,7-dimethoxyisoquinolin-3-yl)-4H-1′-azaspiro[oxazole-5,3′-bicyclo[2.2.2]octan]-2-amine]	1600

Same assay, conditions: FLIPR α7 (EC50, nM), Table 1; HEK 293 cells, agonist Ca2+ flux

SMILES	EC50 [nM]
Clc1cnc(NC2=NC[C@@]3(CN4CCC3CC4)O2)nc1 [Example 213]	9
Fc1ccc2nc(NC3=NCC4(CN5CCC4CC5)O3)[nH]c2c1 (centres unmarked) [Example 77]	355
Fc1cc2nc(NC3=NCC4(CN5CCC4CC5)O3)sc2cc1F (centres unmarked) [Example 52]	325

Same assay, conditions: FLIPR α7 (EC50, nM), Table Ib; HEK 293 cells, agonist Ca2+ flux

SMILES	EC50 [nM]
Cc1cc2cnc(NC3=NC[C@@]4(CN5CCC4CC5)O3)cc2cc1C [Example 335, (2R)—N-(6,7-Dimethyl-3-isoquinolinyl)-4′H-spiro[4-azabicyclo[2.2.2]octane-2,5′-[1,3]oxazol]-2′-amine]	104

Same assay, conditions: FLIPR α7 activity rating (EC50, nM), Table 1; HEK 293 cells, agonist Ca2+ flux

SMILES	EC50 [nM]
c1cnc2sc(NC3=NC[C@@]4(CN5CCC4CC5)O3)nc2n1 [Example 272, (R)—N-(Thiazolo[5,4-b]pyrazin-2-yl)-4H-1′-azaspiro[oxazole-5,3′-bicyclo[2.2.2]octan]-2-amine]	< 100
Clc1cccc2[nH]nc(NC3=NC[C@@]4(CN5CCC4CC5)O3)c12 [Example 132]	100 to 1000
Clc1cnc(NC2=NC[C@@]3(CN4CCC3CC4)O2)nc1 [Example 213]	< 100
COc1ccc(-c2cnc(NC3=NC[C@@]4(CN5CCC4CC5)O3)cn2)cn1 [Example 37, (R)—N-(5-(6-Methoxypyridin-3-yl)pyrazin-2-yl)-4H-1′-azaspiro[oxazole-5,3′-bicyclo[2.2.2]octan]-2-amine]	1000 to 100000
CC(C)c1cc2c(NC3=NC[C@@]4(CN5CCC4CC5)O3)ncnc2s1 [Example 223]	100 to 1000
c1cc2nc(NC3=NC[C@@]4(CN5CCC4CC5)O3)ccc2cn1 [Example 277, (R)—N-(1,6-Naphthyridin-2-yl)-4H-1′-azaspiro[oxazole-5,3′-bicyclo[2.2.2]octan]-2-amine]	< 100
c1cc(NC2=NC[C@@]3(CN4CCC3CC4)O2)ccn1 [Example 235, (R)—N-(Pyridin-4-yl)-4H-1′-azaspiro[oxazole-5,3′-bicyclo[2.2.2]octan]-2-amine]	1000 to 100000
Clc1cccc2sc(NC3=NCC4(CN5CCC4CC5)O3)nc12 (single isomer, unassigned) [Example 7a]	1000 to 100000
c1ccc(-c2cccc(NC3=NC[C@@]4(CN5CCC4CC5)O3)n2)cc1 [Example 30, (R)—N-(6-Phenylpyridin-2-yl)-4H-1′-azaspiro[oxazole-5,3′-bicyclo[2.2.2]octan]-2-amine]	100 to 1000
N#Cc1ccc2nc(NC3=NCC4(CN5CCC4CC5)O3)sc2c1 (centres unmarked) [Example 70]	100 to 1000
Fc1ccc2nc(NC3=NCC4(CN5CCC4CC5)O3)[nH]c2c1 (centres unmarked) [Example 77]	100 to 1000
Brc1cccc(NC2=NC[C@@]3(CN4CCC3CC4)O2)n1 [Example 155]	100 to 1000
c1cc(NC2=NC[C@@]3(CN4CCC3CC4)O2)cnn1 [Example 160]	1000 to 100000
Cc1noc(NC2=NC[C@@]3(CN4CCC3CC4)O2)n1 [Example 260, (R)—N-(3-Methyl-1,2,4-oxadiazol-5-yl)-4H-1′-azaspiro[oxazole-5,3′-bicyclo[2.2.2]octan]-2-amine]	100 to 1000
Fc1cc2nc(NC3=NCC4(CN5CCC4CC5)O3)sc2cc1F (centres unmarked) [Example 52]	100 to 1000
COc1ccc(-c2nc(NC3=NCC4(CN5CCC4CC5)O3)sc2C)cc1 (racemic) [Example 17, N-(4-(4-Methoxyphenyl)-5-methylthiazol-2-yl)-4H-1′-azaspiro[oxazole-5,3′-bicyclo[2.2.2]octan]-2-amine]	100 to 1000
Cc1ccc2nc(NC3=NCC4(CN5CCC4CC5)O3)sc2c1 (single isomer, unassigned) [Example 12a, N-(6-Methylbenzo[d]thiazol-2-yl)-4H-1′-azaspiro[oxazole-5,3′-bicyclo[2.2.2]octan]-2-amine]	100 to 1000
Fc1ccc2nc(NC3=NC[C@@]4(CN5CCC4CC5)O3)sc2c1 [Example 200]	< 100
Cn1c(NC2=NCC3(CN4CCC3CC4)O2)nc2ccccc21 (single isomer, unassigned) [Example 10a, N-(1-methyl-1H-benzo[d]imidazol-2-yl)-4H-1′-azaspiro[oxazole-5,3′-bicyclo[2.2.2]octan]-2-amine]	100 to 1000
COc1cccc2sc(NC3=NCC4(CN5CCC4CC5)O3)nc12 (centres unmarked) [Example 54]	1000 to 100000
Brc1cccc2cnc(NC3=NC[C@@]4(CN5CCC4CC5)O3)cc12 [Example 294, (R)—N-(5-bromoisoquinolin-3-yl)-4H-1′-azaspiro[oxazole-5,3′-bicyclo[2.2.2]octan]-2-amine]	< 100
C1CCc2sc(NC3=NCC4(CN5CCC4CC5)O3)nc2C1 (single isomer, unassigned) [Example 14b]	100 to 1000
Clc1cccc2sc(NC3=NCC4(CN5CCC4CC5)O3)nc12 (racemic) [Example 7, N-(4-chlorobenzo[d]thiazol-2-yl)-4H-1′-azaspiro[oxazole-5,3′-bicyclo[2.2.2]octan]-2-amine]	100 to 1000
COc1ccc(-c2csc(NC3=NCC4(CN5CCC4CC5)O3)n2)cc1 (single isomer, unassigned) [Example 20a]	100 to 1000
Cc1cccn2nc(NC3=NCC4(CN5CCC4CC5)O3)nc12 (centres unmarked) [Example 97]	100 to 1000
Fc1ccc2[nH]nc(NC3=NC[C@@]4(CN5CCC4CC5)O3)c2c1 [Example 159]	< 100
Cc1ccc2nc(NC3=NC[C@@]4(CN5CCC4CC5)O3)cnc2c1 [Example 242, (R)—N-(6-Methylquinoxalin-2-yl)-4H-1′-azaspiro[oxazole-5,3′-bicyclo[2.2.2]octan]-2-amine]	100 to 1000

Same assay, conditions: FLIPR α7 activity rating (EC50, nM), Table Ib; HEK 293 cells, agonist Ca2+ flux

SMILES	EC50 [nM]
Clc1cccc2nc(NC3=NC[C@@]4(CN5CCC4CC5)O3)ncc12 [Example 322, (R)—N-(5-Chloroquinazolin-2-yl)-4H-1′-azaspiro[oxazole-5,3′-bicyclo[2.2.2]octan]-2-amine]	< 100
Cc1cc2cnc(NC3=NC[C@@]4(CN5CCC4CC5)O3)cc2cc1C [Example 335, (2R)—N-(6,7-Dimethyl-3-isoquinolinyl)-4′H-spiro[4-azabicyclo[2.2.2]octane-2,5′-[1,3]oxazol]-2′-amine]	100 to 1000
Fc1ccc2nc(NC3=NC[C@@]4(CN5CCC4CC5)O3)sc2n1 [Example 340, (R)—N-(5-Fluorothiazolo[5,4-b]pyridin-2-yl)-4H-1′-azaspiro[oxazole-5,3′-bicyclo[2.2.2]octan]-2-amine]	< 100
Fc1ccc(F)c2cc(NC3=NC[C@@]4(CN5CCC4CC5)O3)ncc12 [Example 320, (R)—N-(5,8-Difluoroisoquinolin-3-yl)-4H-1′-azaspiro[oxazole-5,3′-bicyclo[2.2.2]octan]-2-amine]	< 100
Fc1ncccc1-c1cc(NC2=NC[C@@]3(CN4CCC3CC4)O2)ncn1 [Example 330, (R)—N-(6-(2-Fluoropyridin-3-yl)pyrimidin-4-yl)-4H-1′-azaspiro[oxazole-5,3′-bicyclo[2.2.2]octan]-2-amine]	< 100
c1nc(NC2=NC[C@@]3(CN4CCC3CC4)O2)cc2c1CCCC2 [Example 343, (R)—N-(5,6,7,8-Tetrahydroisoquinolin-3-yl)-4H-1′-azaspiro[oxazole-5,3′-bicyclo[2.2.2]octan]-2-amine]	< 100
Clc1cn(-c2cc(NC3=NC[C@@]4(CN5CCC4CC5)O3)ncn2)cn1 [Example 349, (R)—N-(6-(4-Chloro-1H-imidazol-1-yl)pyrimidin-4-yl)-4H-1′-azaspiro[oxazole-5,3′-bicyclo[2.2.2]octan]-2-amine]	< 100
Fc1ccc(-c2ccnc(NC3=NC[C@@]4(CN5CCC4CC5)O3)c2)cn1 [Example 299, (R)—N-(6-Fluoro-3,4′-bipyridin-2′-yl)-4H-1′-azaspiro[oxazole-5,3′-bicyclo[2.2.2]octan]-2-amine]	< 100
COc1cc2cnc(NC3=NC[C@@]4(CN5CCC4CC5)O3)cc2cc1OC [Example 342, (R)—N-(6,7-dimethoxyisoquinolin-3-yl)-4H-1′-azaspiro[oxazole-5,3′-bicyclo[2.2.2]octan]-2-amine]	1000 to 100000
